In brackets after ≈: the same amount, converted by molar mass.
Experiments:
Assay in all cases: ≥ marks a high value that may be exact or a test limit, other limits are often not marked, values filed in µg/mL are converted to µM
[1] = tested on: Legionella pneumophila Lens
Escherichia coli K88 = tested on: Escherichia coli K88
[2] = tested on: Escherichia coli O157:H7 CICC 21530
[3] = tested on: Lacticaseibacillus rhamnosus 1.0911
[4] = tested on: Lacticaseibacillus rhamnosus 1.0936
[5] = tested on: Lacticaseibacillus rhamnosus 1.9021
[6] = tested on: Lacticaseibacillus rhamnosus 8014
[7] = tested on: Pseudomonas aeruginosa ATCC 27853
[8] = tested on: Pseudomonas aeruginosa PAO1
[9] = tested on: Salmonella enterica subsp. enterica serovar Choleraesuis CVCC 503
[10] = tested on: Salmonella enterica subsp. enterica serovar Pullorum C79-13
[11] = tested on: Salmonella enterica subsp. enterica serovar Typhimurium ATCC 14028
[12] = tested on: Staphylococcus aureus ATCC 29213
[13] = tested on: Staphylococcus aureus ATCC 43300
[14] = tested on: Staphylococcus epidermidis ATCC 12228
[15] = tested on: Streptococcus agalactiae BNCC 185941
[16] = tested on: Escherichia coli ATCC 25922
[17] = tested on: Listeria monocytogenes KCTC 19111
[18] = tested on: Pseudomonas aeruginosa 3241
[19] = tested on: Pseudomonas aeruginosa 4007
[20] = tested on: Pseudomonas aeruginosa ATCC 15692
[21] = tested on: Pseudomonas aeruginosa CCARM 2073
[22] = tested on: Pseudomonas aeruginosa CCARM 2075
[23] = tested on: Salmonella typhimurium KCTC 1926
[24] = tested on: Staphylococcus aureus 3399
[25] = tested on: Staphylococcus aureus 3518
[26] = tested on: Staphylococcus aureus ATCC 25923
[27] = tested on: Staphylococcus aureus CCARM 3125
[28] = tested on: Staphylococcus aureus CCARM 3709
[29] = tested on: Staphylococcus epidermidis KCTC 1917
[30] = tested on: Acinetobacter baumannii ATCC BAA-1605
[31] = tested on: Acinetobacter baumannii KCCM 1053
[32] = tested on: Bacillus subtilis KCTC 3068
[33] = tested on: Enterococcus faecalis ATCC 51575
[34] = tested on: Enterococcus faecalis KCCM 11814
[35] = tested on: Escherichia coli KCTC 1682
[36] = tested on: Pseudomonas aeruginosa CCARM 2180
[37] = tested on: Pseudomonas aeruginosa KCTC 1637
[38] = tested on: Staphylococcus aureus KCCM 40510
[39] = tested on: Staphylococcus aureus KCTC 1621

CC[C@H](C)[C@H](NC(=O)[C@H](CC(C)C)NC(=O)CNC(=O)[C@H](CCCCN)NC(=O)[C@@H](NC(=O)[C@@H](NC(=O)[C@H](CCC(=O)O)NC(=O)[C@H](Cc1ccccc1)NC(=O)[C@@H](NC(=O)[C@H](CCCCN)NC(=O)[C@H](C)NC(=O)[C@@H](NC(=O)[C@@H](NC(=O)[C@H](CC(=O)O)NC(=O)[C@H](C)NC(=O)[C@@H](N)CCSC)C(C)C)[C@@H](C)CC)[C@@H](C)CC)[C@@H](C)CC)C(C)C)C(=O)N[C@@H](CC(=O)O)C(=O)N[C@@H](CCC(N)=O)C(=O)N[C@@H](Cc1ccccc1)C(=O)N[C@H](C(=O)N[C@@H](CCC(N)=O)C(=O)N[C@@H](CCCCN)C(=O)O)[C@@H](C)O [MADVIAKIFEIVKGLIDQFTQK] gave an MIC [1] of 1.85 µM (≈ 4.64 µg/mL).

For CC(C)C[C@H](NC(=O)CNC(=O)[C@H](CC(C)C)NC(=O)[C@H](Cc1c[nH]c2ccccc12)NC(=O)[C@H](CC(C)C)NC(=O)CNC(=O)[C@H](CC(C)C)NC(=O)[C@H](CCCCN)NC(=O)[C@@H](N)CCCCN)C(=O)N[C@@H](CCCCN)C(=O)N[C@@H](CCCCN)C(N)=O [KKLGLWLGLKK], the MIC (Escherichia coli K88) was 8 µM (≈ 10.3 µg/mL), the MIC [2] was 8 µM (≈ 10.3 µg/mL) and the MIC [3] was at least 128 µM. The MIC [4] was at least 128 µM, the MIC [5] was at least 128 µM and the MIC [6] was at least 128 µM. The MIC [7] was 32 µM (≈ 41 µg/mL), the MIC [8] was 64 µM (≈ 82.1 µg/mL) and the MIC [9] was at least 64 µM. It also gave an MIC [10] of 8 µM (≈ 10.3 µg/mL), an MIC [11] of 64 µM (≈ 82.1 µg/mL) and an MIC [12] of over 128 µM. It also gave an MIC [13] of over 128 µM, an MIC [14] of over 128 µM and an MIC [15] of at least 128 µM.

CC(C)C[C@H](NC(=O)[C@H](Cc1c[nH]c2ccccc12)NC(=O)[C@H](CCCCN)NC(=O)[C@H](CCCCN)NC(=O)[C@H](CC(C)C)NC(=O)[C@H](Cc1c[nH]c2ccccc12)NC(=O)[C@H](CCCCN)NC(=O)[C@H](CCCCN)NC(=O)[C@H](CC(C)C)NC(=O)[C@H](Cc1c[nH]c2ccccc12)NC(=O)[C@@H](N)CCCCN)C(=O)N[C@@H](CCCCN)C(N)=O [KWLKKWLKKWLK] gave an MIC [16] of 1 µM (≈ 1.68 µg/mL), an MIC [17] of 2 µM (≈ 3.37 µg/mL) and an MIC [18] of 2 µM (≈ 3.37 µg/mL). For the same compound, the MIC [19] was 2 µM (≈ 3.37 µg/mL), the MIC [20] was 2 µM (≈ 3.37 µg/mL) and the MIC [21] was 2 µM (≈ 3.37 µg/mL). For the same compound, the MIC [22] was 1 µM (≈ 1.68 µg/mL), the MIC [23] was 2 µM (≈ 3.37 µg/mL) and the MIC [24] was 2 µM (≈ 3.37 µg/mL). The MIC [25] was 2 µM (≈ 3.37 µg/mL), the MIC [26] was 2 µM (≈ 3.37 µg/mL) and the MIC [27] was 2 µM (≈ 3.37 µg/mL). For the same compound, the MIC [28] was 2 µM (≈ 3.37 µg/mL) and the MIC [29] was 1 µM (≈ 1.68 µg/mL).

Work on CC[C@H](C)[C@@H]1NC(=O)[C@H](CCCCN)NC(=O)[C@@H](NC(=O)[C@H](CC(C)C)NC(=O)[C@@H](N)CCCCN)CSSC[C@@H](C(=O)N[C@@H](CCCCN)C(=O)O)NC(=O)[C@H](C(C)C)NC(=O)[C@H](CCCCN)NC(=O)[C@H]([C@@H](C)CC)NC(=O)[C@H](C(C)C)NC(=O)[C@H](C(C)C)NC1=O [KLCKIVVIKVCK] yielded an MIC [30] of at least 64 µM, an MIC [31] of at least 64 µM and an MIC [32] of at least 64 µM. It also gave an MIC [33] of at least 64 µM, an MIC [34] of at least 64 µM and an MIC [35] of 8 µM (≈ 11 µg/mL). It also gave an MIC [36] of at least 64 µM, an MIC [37] of at least 64 µM and an MIC [23] of at least 64 µM. The MIC [38] was at least 64 µM, the MIC [39] was at least 64 µM and the MIC [29] was at least 32 µM.

— DBAASP
